In paper PMC11767819, “Drug Screening of Flavonoids as Potential VEGF Inhibitors Through Computational Docking and Cell Models” (Molecules, 2025):
Read-outs that look alike come from different tables or passages of the source.

Legend:
VEGF protein = target: T1, VEGF protein (Homo sapiens, UniProt P15692); assay: Ultrafiltration-based affinity assay; type: binding; details: ligand 0.02 µM, VEGF protein 0.02 µM, 4 °C, 2 h, n = 4
T1 construct: purchased MCE
T1 sequence (P15692 1-191 isoform P15692-4): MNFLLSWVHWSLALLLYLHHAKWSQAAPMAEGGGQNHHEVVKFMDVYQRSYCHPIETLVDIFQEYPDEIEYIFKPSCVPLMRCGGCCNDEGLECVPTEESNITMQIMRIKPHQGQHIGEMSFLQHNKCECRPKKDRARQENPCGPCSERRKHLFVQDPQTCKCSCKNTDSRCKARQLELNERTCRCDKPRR
Method: Caco-2 cells were cultured until fully differentiated after being cultured for 21 days, and the integrity of cell monolayer was determined by the transepithelial electrical resistance (TEER). * p < 0.05. […] Red curve: initial concentration of chemicals; black curve: concentration of chemicals binding to the protein (Cpre − Cpost). n = 4.
The binding affinity was evaluated through the previous approach. Specifically, the tested ligands at 0.02 µM were mixed with or without 0.02 µM of the VEGF protein (MCE, Monmouth Junction, NJ, USA) and incubated in Milli-Q water (Burlington, MA, USA) at 4 °C for 2 h. The mixture was transferred to a 0.5 mL ultrafiltration tube (2000 MW cutoff; Sartorius Stedim Biotech, Gottingen, Germany). After multiple rounds of centrifugation, the supernatant was further analyzed through HPLC investigation, as described above in Section 4.6.

HaCaT cells [1] = assay: MTT cell viability assay; type: cell-based, human; details: concentrations up to 100 µM, 24 h
Method: Cell viability was assessed with the MTT assay to evaluate the potential toxicity effect of the tested drugs. HaCaT cells were seeded onto 96-well plates for 24 h prior to drug treatments. After incubations for 24 h, an MTT solution in a final concentration of 0.5 mg/mL was added to each well. Following another 3 h of incubation, DMSO solvent was used to dissolve the purple formazan crystals generated in each well. The absorbance of the samples at 570 nm was measured using a microplate reader (Thermo Fisher Scientific). The cell viability was calculated as follows: cytotoxicity (%) = (experimental value − low control)/(high control − low control) × 100%.

[2] = Chemical stability test through HPLC analysis; type: physicochemical; details: for Inter-Day RSD / Inter-Day Mean Peak Area: 6 consecutive days; for Inter-Day RSD / Intra-Day RSD: n = 6; for Inter-Day Mean Peak Area / Intra-Day Mean Peak Area: n = 6, 210 nm; for Intra-Day RSD / Intra-Day Mean Peak Area: same day; for Stability in aqueous solution (in words): acidic, neutral and basic conditions, HPLC
Source text: Chemical degradation has been a major factor resulting in molecular hydrolysis, oxidation, light-catalyzed degradation and so on. Therefore, stability in aqueous solution, including acidic, neutral and basic conditions, has become a crucial requirement for a promising drug candidate. Prior to the biochemical assay, three phytochemicals were subjected to HPLC analysis to determine their stabilities in various solutions. Glycine buffer (pH 8–11), PBS (pH 7–8) and acetate buffer (pH 4–6) were employed to cover the main pH ranges. […].
The stability test was validated by determining the intra-day and inter-day variability through HPLC analysis, which was performed on an Agilent 1200 Liquid Chromatography (Santa Clara, CA, USA) equipped with an ODS C18 column (4.6 mm × 250 mm). Glycine buffer (pH 8–11), PBS (pH 7–8) and acetate buffer (pH 4–6) were employed to cover main pH ranges. Stock solutions at a concentration of 10 mM of the test compounds were prepared in DMSO and stored at −20 °C, while working concentrations were prepared at 1–5 μM solution in DMSO and buffers. Chromatography was conducted through the ORBAX XDB-C18 column (Agilent, 4.6 × 50 mm, 1.8 μm). The mobile phase was a mixture of water and acetonitrile (95:5, v/v), and the elution time was 15 min. The mobile phase flow rate and injection volume were 1.0 mL/min and 10 μL, respectively. Analytes were detected at a 210 nm wavelength. The intra-day and inter-day stability was calculated by analyzing six replicates of the standard solution of the two analytes during a single day and six replicates of the samples detected on six consecutive days, respectively. Thereafter, the relative standard deviation (RSD) was determined as a measurement of stability.

HaCaT cells [3] = assay: Wound closure (wound healing) assay, VEGF-induced; type: cell-based; details: Homo sapiens, 20 h, read-out: IC50 of inhibition of wound recovery rate
Method: Photos of each cell scrape at 0 (At0) and 20 h (At20) were captured with microscope and imaging software (Zen, https://www.zeiss.com/microscopy/en/home.html, accessed on 1 September 2024) at a 10× magnification. […] A: positive control, Avastin; F: farrerol; O: ononin; E: (−)-epicatechin.
A wound closure assay was performed on cultured HaCaT cells to study cell migration in vitro. Procedures were described previously by Guo et al.. Briefly, HaCaT cells were seeded onto a 12-well plate with a density of 3 × 10^5 cells/well. Treatments were given when cells grew to full confluency. After serum starvation, sterile 200 μL pipette tips were used to make a vertical and a horizontal scrape on the cell monolayer in a consistent manner. Cells were washed with PBS and treated with drugs at various concentrations. Photos of each cell scrape at 0 (At0) and 20 h (At20) were captured with a microscope and imaging software (Zen) at a 10× magnification. The software TScratch (CSE lab, Zurich, Switzerland, https://github.com/cselab/TScratch, accessed on 1 September 2024) was used to analyze the open area of each scrape photo at different timepoints. Quantification of the recovery rate of the wound was calculated based on the following equation: wound closure (%) = (At0 − At20)/At20 × 100%.

NF-κB in RAW 264.3 cells = assay: Luciferase activity of NF-κB, VEGF-induced; type: cell-based; details: chemicals 1, 10 and 25 µM, avastin 10 ng/mL
Method: The luciferase of NK-κB activity was performed following a previous report. Briefly, RAW 264.3 cells were transfected with pNF-κB (Thermo Fisher Scientific) using jetPRIME and incubated for 24 h. The refresh medium was replaced every four hours, and drug treatments were added twice after 24 h or 48 h. Upon completion of the reaction, the chemical luminescent intensity was determined by a luminometer (Promega, WI, USA) and normalized by protein concentrations.

endothelial cells = details: cell proliferation and migration in endothelial cells, phosphorylation of PI3-K/Akt, JNK and eNOS; cited from earlier work
tumor growth = details: nude mice; cited from earlier work

Cc1c(O)c(C)c2c(c1O)C(=O)C[C@@H](c1ccc(O)cc1)O2 [farrerol]
protein binding degree (VEGF protein): 58.3% | Cell viability (cytotoxic effect) (HaCaT cells [1]): cells remained unaffected | Inter-Day RSD ([2]; acidic (acetate buffer pH 4–6)): 5.89% | Inter-Day Mean Peak Area ([2]; acidic (acetate buffer pH 4–6)): 38,145.2 | Intra-Day RSD ([2]; acidic (acetate buffer pH 4–6)): 4.09% | Intra-Day Mean Peak Area ([2]; acidic (acetate buffer pH 4–6)): 31,803.7 | Stability in aqueous solution (in words) [2]: relatively stable in diverse aqueous conditions | Inter-Day RSD ([2]; basic (glycine buffer pH 8–11)): 6.54% | Inter-Day Mean Peak Area ([2]; basic (glycine buffer pH 8–11)): 35,412.4 | Intra-Day RSD ([2]; basic (glycine buffer pH 8–11)): 2.81% | Intra-Day Mean Peak Area ([2]; basic (glycine buffer pH 8–11)): 33,332.4 | Inter-Day RSD ([2]; neutral (PBS pH 7–8)): 4.43% | Inter-Day Mean Peak Area ([2]; neutral (PBS pH 7–8)): 36,478.1 | Intra-Day RSD ([2]; neutral (PBS pH 7–8)): 4.79% | Intra-Day Mean Peak Area ([2]; neutral (PBS pH 7–8)): 31,542.0 | IC50 (HaCaT cells [3]; HaCaT): 4.7 µM

Oc1cc(O)c2c(c1)O[C@H](c1ccc(O)c(O)c1)[C@H](O)C2 [(−)-epicatechin]
protein binding degree (VEGF protein): 50.3% | Effect on VEGF-induced NF-κB activity (in words) (NF-κB in RAW 264.3 cells): suppressed in dose-dependent manners | Cell viability (cytotoxic effect) (HaCaT cells [1]): cells remained unaffected | Inter-Day RSD ([2]; acidic (acetate buffer pH 4–6)): 11.91% | Inter-Day Mean Peak Area ([2]; acidic (acetate buffer pH 4–6)): 2510.4 | Intra-Day RSD ([2]; acidic (acetate buffer pH 4–6)): 3.98% | Intra-Day Mean Peak Area ([2]; acidic (acetate buffer pH 4–6)): 2751.5 | Stability in aqueous solution (in words) [2]: some mild degradation of (−)-epicatechin was induced in acidic and basic environments | Inter-Day RSD ([2]; basic (glycine buffer pH 8–11)): 13.58% | Inter-Day Mean Peak Area ([2]; basic (glycine buffer pH 8–11)): 2519.4 | Intra-Day RSD ([2]; basic (glycine buffer pH 8–11)): 4.85% | Intra-Day Mean Peak Area ([2]; basic (glycine buffer pH 8–11)): 2726.0 | Inter-Day RSD ([2]; neutral (PBS pH 7–8)): 7.56% | Inter-Day Mean Peak Area ([2]; neutral (PBS pH 7–8)): 2601.7 | Intra-Day RSD ([2]; neutral (PBS pH 7–8)): 1.38% | Intra-Day Mean Peak Area ([2]; neutral (PBS pH 7–8)): 2826.6 | IC50 (HaCaT cells [3]; HaCaT cells, VEGF-induced): 9.2 µM

avastin: Bevacizumab (avastin), first monoclonal antibody targeting the VEGF protein; positive control
Effect on VEGF-induced NF-κB activity (in words) (NF-κB in RAW 264.3 cells): attenuate the NF-κB signal

COc1ccc(-c2coc3cc(O[C@@H]4O[C@H](CO)[C@@H](O)[C@H](O)[C@H]4O)ccc3c2=O)cc1 [ononin]
protein binding degree (VEGF protein): 53.4% | Effect on VEGF-induced NF-κB activity (in words) (NF-κB in RAW 264.3 cells): suppressed in dose-dependent manners | Cell viability (cytotoxic effect) (HaCaT cells [1]): cells remained unaffected | Inter-Day RSD ([2]; acidic (acetate buffer pH 4–6)): 4.12% | Inter-Day Mean Peak Area ([2]; acidic (acetate buffer pH 4–6)): 275,981.3 | Intra-Day RSD ([2]; acidic (acetate buffer pH 4–6)): 1.93% | Intra-Day Mean Peak Area ([2]; acidic (acetate buffer pH 4–6)): 254,398.2 | Stability in aqueous solution (in words) [2]: relatively stable in diverse aqueous conditions | Inter-Day RSD ([2]; basic (glycine buffer pH 8–11)): 4.78% | Inter-Day Mean Peak Area ([2]; basic (glycine buffer pH 8–11)): 274,514.7 | Intra-Day RSD ([2]; basic (glycine buffer pH 8–11)): 3.12% | Intra-Day Mean Peak Area ([2]; basic (glycine buffer pH 8–11)): 273,422.8 | Inter-Day RSD ([2]; neutral (PBS pH 7–8)): 3.65% | Inter-Day Mean Peak Area ([2]; neutral (PBS pH 7–8)): 265,877.4 | Intra-Day RSD ([2]; neutral (PBS pH 7–8)): 1.61% | Intra-Day Mean Peak Area ([2]; neutral (PBS pH 7–8)): 313,200.4 | IC50 (HaCaT cells [3]; HaCaT cells, VEGF-induced): 3.8 µM

OC[C@H]1O[C@@H](Oc2cc(O)cc(/C=C/c3ccc(O)cc3)c2)[C@H](O)[C@@H](O)[C@@H]1O [polydatin]
Inhibition of VEGF-mediated biological activities (in words) (endothelial cells): robust inhibition

Oc1ccc(/C=C/c2cc(O)cc(O)c2)cc1 [resveratrol]
Inhibition of VEGF-mediated biological activities (in words) (endothelial cells): robust inhibition | Tumor growth (in words) (tumor growth): significantly suppress tumor growth
